Experimental findings from patent publication US20250171430A1, “PYRAZOLYL COMPOUNDS AS KV7 CHANNEL ACTIVATORS” (Biohaven Therapeutics Ltd., priority 2022, published 2025) are described below.

This test concerns the target T1, Kv7.2/7.3 (Homo sapiens, UniProt O43525+O43526).
T1 construct: Kv7.2 tetracycline-induced, Kv7.3 constitutive
Nature of the test: Kv7.2/7.3 Activation Assay (Thallium Flux Assay). The test is classed as cell-based. The following applies: hKV7.2/7.3 cell line; test compound at single concentration of 10 μM; fluorescence at 90 sec normalized to positive control (retigabine, 30 μM). An excerpt: The Thallium Flux Assay is used as a surrogate indicator of potassium channel activity.
The experimental protocol was adapted from the FluxOR™ II Green Potassium Ion Channel Assay User Guide (Pub. No. MAN0016084, Invitrogen). Conditions were optimized for the Kv7.2/7.3 cell line.
Cell Line: The hKV7.2/7.3 cell line was obtained from Chantest (cat. #CT6147).
Cell Culture: Kv7.2/7.3 cells were maintained in a media containing DMEM/F12; 50/50 (Fisher 11-330), 10% Fetal Bovine Serum (FBS) (Fisher 26-140), 100 units/mL Penicillin-Streptomycin (Fisher 15-140), 0.005 mg/ml Blasticidin (InvivoGen ant-bl-1), 0.5 mg/mL Geneticin (InvivoGen ant-gn-5), and 0.1 mg/mL Zeocin (Fisher R25001). One day prior to experimentation, cells were plated in 96 well clear bottom plates (Corning cat. #353219) in a media without Blasticidin, Geneticin, or Zeocin. In this cell line Kv7.3 channel expression is controlled by a constitutive promoter. Kv7.2 channel expression was induced by adding tetracycline (Sigma T7660) at a final concentration of 10 ng/mL overnight in a cell culture incubator at 37° C. and 5% CO2. On the day of assay, the cell culture medium in the 96-well plates was replaced by assay buffer containing the thallium-sensitive fluorescent sensor, FluxOR II Green prepared according to manufacturer's instructions. The 96-well plates were then incubated for 1 h at 37° C. Following the incubation, the FluxOR II Green-containing solution was replaced with extracellular solution.
Test Compound Plates: The test compound is diluted in a mixture of 0.1% DMSO/extracellular solution at a single concentration of 10 μM. Dilutions were made on a Biomek NXP (BECKMAN COULTER). Extracellular solution contained (in mM: 145 NaCl, 4 KCl, 2 CaCl2), 1 MgCl2, 10 HEPES, and 10 Glucose, pH 7.4).
Measurement and data analysis: Thallium-flux-mediated changes in intracellular fluorescence were made using a plate reader (Enspire, Perkin Elmer) set with an excitation wavelength of 475 nm and an emission wavelength of 530 nm. After a 15 sec baseline measurement, the stimulus buffer containing thallium and potassium was added to the 96-well plate containing FluxOR II Green-loaded cells and test compounds. Fluorescence values at 90 sec were normalized to the positive control (retigabine, 30 μM) and test compound activities were assigned categories according to the formula: “No Activity <0.15, “+” Moderate Activity 0.15-0.7, and “++” High Activity >0.7.
As to `Cn1nc(NC(=O)OC2CC(F)(F)C2)c(C2CCC2)c1-c1ccc(Cl)s1` [Compound 226, 3,3-difluorocyclobutyl (5-(5-chlorothiophen-2-yl)-4-cyclobutyl-1-methyl-1H-pyrazol-3-yl)carbamate], the “Kv7.2/7.3 Activity” value was “++ (“++” High Activity ≥ 0.7)”.
Consider `CCn1nc(NC(=O)CC(C)(C)C)c(C2CC2)c1C` [Compound 7, N-(4-cyclopropyl-1-ethyl-5-methyl-1H-pyrazol-3-yl)-3,3-dimethylbutanamide], for which the “Kv7.2/7.3 Activity” value is recorded as “+ (“+” Moderate Activity 0.15-0.7)”.
In the case of `Cn1nc(NC(=O)C2CC(F)(F)C2)c(C2CCC2)c1C1COC1` [Compound 282, N-(4-cyclobutyl-1-methyl-5-(oxetan-3-yl)-1H-pyrazol-3-yl)-3,3-difluorocyclobutane-1-carboxamide], the “Kv7.2/7.3 Activity” value was “− (“−” No Activity < 0.15)”.
Consider `Cn1nc(NC(=O)CC2CC(F)(F)C2)c(C2CCC2)c1-c1ccc(F)c(F)c1` [Compound 217, N-(4-cyclobutyl-5-(3,4-difluorophenyl)-1-methyl-1H-pyrazol-3-yl)-2-(3,3-difluorocyclobutyl)acetamide], for which the “Kv7.2/7.3 Activity” value is “++ (“++” High Activity ≥ 0.7)”.
`Cn1nc(NC(=O)[C@H]2CC2(F)F)c(C2(C)CCC2)c1-c1ccc(F)cc1` [Compound 139, (R)-2,2-difluoro-N-(5-(4-fluorophenyl)-1-methyl-4-(1-methylcyclobutyl)-1H-pyrazol-3-yl)cyclopropane-1-carboxamide]: the “Kv7.2/7.3 Activity” value is “++ (“++” High Activity ≥ 0.7)”.
With `C[C@H](C(=O)Nc1nn(CC(F)(F)F)c(-c2ccc(F)cc2)c1C1CCC1)C1(C(F)(F)F)CC1` [Compound 142, (S)-N-(4-cyclobutyl-5-(4-fluorophenyl)-1-(2,2,2-trifluoroethyl)-1H-pyrazol-3-yl)-2-(1-(trifluoromethyl)cyclopropyl)propanamide] the entry was “− (“−” No Activity < 0.15)”; with `Cn1nc(NC(=O)OC2CC(F)(F)C2)c(C2CCC2)c1-c1ccc(Cl)c(F)c1` [Compound 260, 3,3-difluorocyclobutyl (5-(4-chloro-3-fluorophenyl)-4-cyclobutyl-1-methyl-1H-pyrazol-3-yl)carbamate], “++ (“++” High Activity ≥ 0.7)”.
Take `Cn1nc(NC(=O)C[C@@H]2CC(F)(F)C2(F)F)c(C2CCC2)c1C1CCC(F)(F)CC1` [Compound 273, (R)-N-(4-cyclobutyl-5-(4,4-difluorocyclohexyl)-1-methyl-1H-pyrazol-3-yl)-2-(2,2,3,3-tetrafluorocyclobutyl)acetamide]: the “Kv7.2/7.3 Activity” value was “++ (“++” High Activity ≥ 0.7)”.
With `Cn1nc(NC(=O)C[C@H]2CC(F)(F)C2(F)F)c(C2CCC2)c1Cc1ccc(OC(F)(F)F)cc1` [Compound 64, (S)-N-(4-cyclobutyl-1-methyl-5-(4-(trifluoromethoxy)benzyl)-1H-pyrazol-3-yl)-2-(2,2,3,3-tetrafluorocyclobutyl)acetamide] the entry was “+ (“+” Moderate Activity 0.15-0.7)”.
With `Cn1nc(NC(=O)NC2CC(F)(F)C2)c(C2CCC2)c1-c1ccc(F)c(F)c1` [Compound 213, 1-(4-cyclobutyl-5-(3,4-difluorophenyl)-1-methyl-1H-pyrazol-3-yl)-3-(3,3-difluorocyclobutyl)urea] the entry was “++ (“++” High Activity ≥ 0.7)”; with `Cn1nc(NC(=O)C(C)(C)C(F)F)c(C2CCC2)c1-c1ccccc1F` [Compound 172, N-(4-cyclobutyl-5-(2-fluorophenyl)-1-methyl-1H-pyrazol-3-yl)-3,3-difluoro-2,2-dimethylpropanamide], “+ (“+” Moderate Activity 0.15-0.7)”; with `Cn1nc(NC(=O)C2CS(=O)(=O)C2)c(C2CCC2)c1-c1ccc(F)cc1` [Compound 228, N-(4-cyclobutyl-5-(4-fluorophenyl)-1-methyl-1H-pyrazol-3-yl)thietane-3-carboxamide 1,1-dioxide], “− (“−” No Activity < 0.15)”.
With `Cn1nc(NC(=O)C[C@H]2CC(F)(F)C2(F)F)c(C2CCC2)c1-c1noc2ccccc12` [Compound 19, (S)-N-(5-(benzo[d]isoxazol-3-yl)-4-cyclobutyl-1-methyl-1H-pyrazol-3-yl)-2-(2,2,3,3-tetrafluorocyclobutyl)acetamide] the entry was “++ (“++” High Activity ≥ 0.7)”.
As to `Cn1nc(NC(=O)C2CC(F)(F)C2)c(C2CCC2)c1-c1cccc(F)c1` [Compound 193, N-(4-cyclobutyl-5-(3-fluorophenyl)-1-methyl-1H-pyrazol-3-yl)-3,3-difluorocyclobutane-1-carboxamide], the “Kv7.2/7.3 Activity” value is on record as “++ (“++” High Activity ≥ 0.7)”.
With `CC(C)c1c(NC(=O)CC2(C(F)(F)F)CC2)nn(C)c1-c1ccc(OC(F)(F)F)cc1` [Compound 26, N-(4-isopropyl-1-methyl-5-(4-(trifluoromethoxy)phenyl)-1H-pyrazol-3-yl)-2-(1-(trifluoromethyl)cyclopropyl)acetamide], the “Kv7.2/7.3 Activity” value is on record as “++ (“++” High Activity ≥ 0.7)”.
Regarding `Cn1nc(NC(=O)C[C@@H]2CC(F)(F)C2(F)F)c(C2CCC2)c1-c1noc2ccccc12` [Compound 18, (R)-N-(5-(benzo[d]isoxazol-3-yl)-4-cyclobutyl-1-methyl-1H-pyrazol-3-yl)-2-(2,2,3,3-tetrafluorocyclobutyl)acetamide], the “Kv7.2/7.3 Activity” value is “++ (“++” High Activity ≥ 0.7)”.
`Cn1nc(NC(=O)CC2(O)CCCC2)c(C2CCC2)c1CC1CC1` [Compound 81, N-(4-cyclobutyl-5-(cyclopropylmethyl)-1-methyl-1H-pyrazol-3-yl)-2-(1-hydroxycyclopentyl)acetamide]: the “Kv7.2/7.3 Activity” value was “+ (“+” Moderate Activity 0.15-0.7)”.
With `Cn1nc(NC(=O)N[C@@H]2CCC(F)(F)C2)c(C2CCC2)c1-c1ccc(F)cc1` [Compound 238, (R)-1-(4-cyclobutyl-5-(4-fluorophenyl)-1-methyl-1H-pyrazol-3-yl)-3-(3,3-difluorocyclopentyl)urea] the entry was “+ (“+” Moderate Activity 0.15-0.7)”; with `Cn1nc(NC(=O)C[C@@H]2CC(F)(F)C2(F)F)c(C2CCC2)c1CCc1ccccc1` [Compound 61, (R)-N-(4-cyclobutyl-1-methyl-5-phenethyl-1H-pyrazol-3-yl)-2-(2,2,3,3-tetrafluorocyclobutyl)acetamide], “++ (“++” High Activity ≥ 0.7)”; with `Cn1nc(NC(=O)CC2CC(F)(F)C2)c(C2CCC2)c1-c1ccc(OC(F)(F)F)cc1` [Compound 72, N-(4-cyclobutyl-1-methyl-5-(4-(trifluoromethoxy)phenyl)-1H-pyrazol-3-yl)-2-(3,3-difluorocyclobutyl)acetamide], “++ (“++” High Activity ≥ 0.7)”.
With `CO[C@@H](CC(=O)Nc1nn(C)c(-c2ccc(Cl)s2)c1C1CCC1)C(F)(F)F` [Compound 233, (S)-N-(5-(5-chlorothiophen-2-yl)-4-cyclobutyl-1-methyl-1H-pyrazol-3-yl)-4,4,4-trifluoro-3-methoxybutanamide] the entry was “++ (“++” High Activity ≥ 0.7)”; with `CC(C)c1c(NC(=O)C[C@@H]2CC(F)(F)C2(F)F)nn(C)c1-c1ccc(OC(F)(F)F)cc1` [Compound 24, (R)-N-(4-isopropyl-1-methyl-5-(4-(trifluoromethoxy)phenyl)-1H-pyrazol-3-yl)-2-(2,2,3,3-tetrafluorocyclobutyl)acetamide], “++ (“++” High Activity ≥ 0.7)”; with `Cn1nc(NC(=O)C2CSC2)c(C2CCC2)c1-c1ccc(Cl)s1` [Compound 248, N-(5-(5-chlorothiophen-2-yl)-4-cyclobutyl-1-methyl-1H-pyrazol-3-yl)thietane-3-carboxamide], “++ (“++” High Activity ≥ 0.7)”.
Take `Cn1nc(NC(=O)C[C@H]2CC(F)(F)C2(F)F)c(C2CCC2)c1-c1cccc(C(C)(C)O)c1` [Compound 48, (S)-N-(4-cyclobutyl-5-(3-(2-hydroxypropan-2-yl)phenyl)-1-methyl-1H-pyrazol-3-yl)-2-(2,2,3,3-tetrafluorocyclobutyl)acetamide]: the “Kv7.2/7.3 Activity” value is “+ (“+” Moderate Activity 0.15-0.7)”.
With `Cn1nc(NC(=O)CC2COC2)c(C2CCC2)c1-c1ccc(F)cc1` [Compound 85, N-(4-cyclobutyl-5-(4-fluorophenyl)-1-methyl-1H-pyrazol-3-yl)-2-(oxetan-3-yl)acetamide], the “Kv7.2/7.3 Activity” value is reported as “− (“−” No Activity < 0.15)”.
